Measurements taken from the NIST ThermoML archive (doi:10.1021/je0504212).

Assays:
[1] = 308.5 K; 101.33 kPa; Liquid
[2] = excess molar enthalpy (molar enthalpy of mixing); xn = mol fraction of the nth substance listed; conditions: 308.15 K, 101 kPa, Liquid, Flow calorimetry

CCOCCOCCOCCO [2-(2-(2-ethoxyethoxy)ethoxy)ethanol]
Conditions	mass density [kg/m3]
[1]	1008.8

CCOCCOCCOCCO [2-(2-(2-ethoxyethoxy)ethoxy)ethanol] + OCc1ccccc1
[2]
Conditions	excess molar enthalpy [kJ/mol]
x1 = 0.0241	-0.197
x1 = 0.047	-0.3533
x1 = 0.0689	-0.4763
x1 = 0.0898	-0.5746
x1 = 0.129	-0.7169
x1 = 0.1648	-0.8135
x1 = 0.2284	-0.9273
x1 = 0.283	-0.9874
x1 = 0.3719	-1.036
x1 = 0.4704	-1.03
x1 = 0.5422	-0.9851
x1 = 0.6398	-0.8691
x1 = 0.7031	-0.7647
x1 = 0.7804	-0.6104
x1 = 0.8257	-0.51
x1 = 0.8766	-0.3858
x1 = 0.9343	-0.227

OCCOCCO [diethylene glycol]
Conditions	mass density [kg/m3]
[1]	1105.86

CCOCCOCCOCC [diethylene glycol diethyl ether] + OCc1ccccc1
[2]
Conditions	excess molar enthalpy [kJ/mol]
x1 = 0.0234	-0.168
x1 = 0.0458	-0.304
x1 = 0.0672	-0.4167
x1 = 0.0876	-0.5083
x1 = 0.1259	-0.6473
x1 = 0.1611	-0.7418
x1 = 0.2236	-0.8493
x1 = 0.2774	-0.8916
x1 = 0.3655	-0.8906
x1 = 0.4635	-0.8255
x1 = 0.5353	-0.7498
x1 = 0.6334	-0.6247
x1 = 0.6973	-0.5306
x1 = 0.7756	-0.4016
x1 = 0.8217	-0.32
x1 = 0.8736	-0.225
x1 = 0.9325	-0.115

COCCOC [1,2-dimethoxyethane] + OCc1ccccc1
[2]
Conditions	excess molar enthalpy [kJ/mol]
x1 = 0.0395	0.0723
x1 = 0.076	0.0567
x1 = 0.1098	0.0029
x1 = 0.1413	-0.0625
x1 = 0.1979	-0.182
x1 = 0.2476	-0.265
x1 = 0.3305	-0.335
x1 = 0.3969	-0.335
x1 = 0.4968	-0.261
x1 = 0.5969	-0.122
x1 = 0.6638	0.0128
x1 = 0.7476	0.227
x1 = 0.7979	0.3643
x1 = 0.8555	0.4893
x1 = 0.8876	0.517
x1 = 0.9221	0.4859
x1 = 0.9595	0.3449

CCOCCOCC [1,2-diethoxyethane]
Conditions	mass density [kg/m3]
[1]	826.22

CCOCCOCCO [3,6-dioxa-1-octanol] + OCc1ccccc1
[2]
Conditions	excess molar enthalpy [kJ/mol]
x1 = 0.0289	-0.197
x1 = 0.0561	-0.346
x1 = 0.0819	-0.461
x1 = 0.1063	-0.5515
x1 = 0.1514	-0.6808
x1 = 0.1921	-0.7696
x1 = 0.2629	-0.8717
x1 = 0.3223	-0.9193
x1 = 0.4164	-0.9413
x1 = 0.517	-0.8963
x1 = 0.588	-0.8322
x1 = 0.6816	-0.7117
x1 = 0.7405	-0.6172
x1 = 0.8106	-0.487
x1 = 0.8509	-0.4008
x1 = 0.8954	-0.296
x1 = 0.9448	-0.165

CCOCCOCC [1,2-diethoxyethane] + OCc1ccccc1
[2]
Conditions	excess molar enthalpy [kJ/mol]
x1 = 0.0296	-0.0494
x1 = 0.0575	-0.122
x1 = 0.0838	-0.202
x1 = 0.1087	-0.276
x1 = 0.1546	-0.3981
x1 = 0.196	-0.4781
x1 = 0.2678	-0.5489
x1 = 0.3278	-0.5536
x1 = 0.4225	-0.5121
x1 = 0.5232	-0.449
x1 = 0.594	-0.3957
x1 = 0.687	-0.286
x1 = 0.7453	-0.183
x1 = 0.8144	-0.0385
x1 = 0.8541	0.0428
x1 = 0.8977	0.11
x1 = 0.9461	0.124

OCc1ccccc1 [benzenemethanol]
Conditions	mass density [kg/m3]
[1]	1033.64

OCCOCCOCCO [triethylene glycol]
Conditions	mass density [kg/m3]
[1]	1112.59

OCc1ccccc1 [benzenemethanol] + CCCCOCCCC
[2]
Conditions	excess molar enthalpy [kJ/mol]
x2 = 0.0247	-0.0067
x2 = 0.0481	0.001
x2 = 0.0705	0.0178
x2 = 0.0918	0.0403
x2 = 0.1317	0.0927
x2 = 0.1682	0.149
x2 = 0.2327	0.253
x2 = 0.288	0.3435
x2 = 0.3776	0.4754
x2 = 0.4765	0.5882
x2 = 0.5482	0.6422
x2 = 0.6454	0.6809
x2 = 0.7082	0.6883
x2 = 0.7845	0.6726
x2 = 0.8292	0.6413
x2 = 0.8792	0.5697
x2 = 0.9357	0.4007

CCOCCO [2-ethoxyethan-1-ol] + OCc1ccccc1
[2]
Conditions	excess molar enthalpy [kJ/mol]
x1 = 0.0424	-0.0908
x1 = 0.0814	-0.162
x1 = 0.1173	-0.218
x1 = 0.1505	-0.266
x1 = 0.21	-0.336
x1 = 0.2617	-0.3853
x1 = 0.3471	-0.4414
x1 = 0.4148	-0.4607
x1 = 0.5154	-0.4578
x1 = 0.6147	-0.419
x1 = 0.6802	-0.3754
x1 = 0.7613	-0.302
x1 = 0.8097	-0.248
x1 = 0.8645	-0.177
x1 = 0.8948	-0.134
x1 = 0.9273	-0.0884
x1 = 0.9623	-0.0416

CCOCCOCCO [3,6-dioxa-1-octanol]
Conditions	mass density [kg/m3]
[1]	974.67

CCOCCOCCOCC [diethylene glycol diethyl ether]
Conditions	mass density [kg/m3]
[1]	893.08

COCCOC [1,2-dimethoxyethane]
Conditions	mass density [kg/m3]
[1]	850.28

CCOCCO [2-ethoxyethan-1-ol]
Conditions	mass density [kg/m3]
[1]	916
